From patent US10087417B2, “Three-dimensional model of human cortex” (priority 2015, dated 2018)

How the values were obtained:
Format in all cases: cell-based, human
neocortical organoids [1] = details: 3 μM cocaine days 32-44; day 66; H9 and H14
Experimental: Adherent cells in culture were fixed with 4% PFA for 10 min, followed by PBS wash. Neocortical organoids embedded in collagen gel were immersed in 4% PFA for 20 min and cryoprotected in 20% sucrose in PBS for 20 min. Cryostat sections (10 μm) were thaw-mounted onto gelatin-subbed slides. Cells and tissue sections were blocked with 0.2% Triton X-100 in PBS supplemented with 5% BSA and 10% goat serum. Cells were then incubated with primary antibodies in 0.2% Triton X-100 in PBS with 5% BSA and 5% goat serum: rabbit anti-BF1 (1:100; Abcam), rat anti-CD133 (1:100; Millipore), rat anti-CTIP2 (1:50; Abcam), rabbit anti-CUX1 (1:100; Santa Cruz Biotechnology), rabbit anti-EMX1 (1:50; Sigma), mouse anti-gamma-tubulin (1:500; Sigma), rat anti-HOXB4 (1:50; DSHB), mouse anti-Ki67 (1:100; BD Biosciences), rabbit anti-N-cadherin (1:100; Abcam), mouse anti-Nestin (1:50; R&D Systems), mouse anti-NKX2.1 (1:200; Chemicon), mouse anti-PAX6 (1:50; DSHB), rabbit anti-PAX6 (1:300; Covance), rabbit anti-PH3 (1:500; Cell Signaling Technology), mouse anti-Reelin (1:200; Millipore), rabbit anti-TBR1 (1:1000; Abcam), and mouse anti-TUJ1 (1:2,000; Promega). […] TUJ1+ neocortical areas were calculated by normalization of TUJ1+ areas in the neocortical organoids at day 66 (using only sections from the center of each organoid) to organoid size at day 24. […]

[2] = system: PAX6+ NE cells of neocortical organoids; details: 3 μM cocaine 1 h every other day, days 32-44; day 45; H9 and H14
Experimental: (§1) FIGS. 5A-5I is a series of panels showing neurodevelopmental effects of cocaine mediated by CYP3A5. FIG. 5A is an image showing RT-PCR analysis of expression of CYP3A family genes at different stages of neocortical organoid differentiation. “Neocortical organoids” indicates day 44 of differentiation. FIG. 5B is a graph showing ROS formation in the neocortical organoids in presence or absence of cocaine. Neocortical organoids were treated with 3 μM cocaine for 1 h every other day from day 32 to day 44, and endogenous ROS was measured at day 44. n=6. FIG. 5C is a graph showing effects of CYP3A5 or CYP3A43 knockdown on cocaine-induced ROS generation in H9 (dashed line, in the absence of cocaine). n=6. FIG. 5D is a graph showing proliferation of PAX6^+ NE cells of neocortical organoids in the presence or absence of cocaine in H9. Proliferation was examined at day 45 with 1 h BrdU (10 μM) incorporation. n=5. FIG. 5E is a graph showing effects of CYP3A5 or CYP3A43 knockdown on cocaine-induced inhibition of proliferation of PAX6^+ NE cells in H9 (dashed line, in the absence of cocaine). n=7. FIG. 5F is graph showing neuronal differentiation in neocortical organoids in the presence or absence of cocaine in H9. Neuronal differentiation was analyzed 24 h after 1 h BrdU (10 μM) treatment from day 51 to day 52. […] FIG. 5G is a graph showing effects of CYP3A5 or CYP3A43 knockdown on cocaine-induced premature neuronal differentiation in H9 (dashed line, in the absence of cocaine). n=7, FIG. 5H is a graph showing neural tissue development in the presence or absence of cocaine in H9. TUJ1^+ areas in the neocortical organoids were analyzed at day 66. TUJ1^+ areas expressed as percentages of total organoid area on day 24 are shown. n=6. FIG. 5I is a graph showing effects of CYP3A5 or CYP3A43 knockdown on cocaine-induced inhibition of neural tissue development in H9 (dashed line, in the absence of cocaine). n=6. Data are shown as means±SEM. Unpaired two-tailed Student's t-test for H9 and H14 in FIG. 5B, and for FIGS. 5D, 5F, and 5H. […]

neocortical organoids [3] = details: 3 μM cocaine days 32-44, days 51-52
Experimental: as §1

neocortical organoids [4] = details: 3 μM cocaine 1 h every other day, days 32-44; measured day 44
Experimental: Endogenous ROS were measured by incubating neocortical organoids at day 44 with 100 μM 2′,7′-dichlorofluorescein diacetate (DCFH-DA) (Sigma-Aldrich) for 30 min with or without cocaine. The organoids were washed and dissolved in 1% Triton X-100 in PBS. Fluorescence for each sample was measured at an excitation wavelength of 485 nm, and an emission wavelength of 530 nm using a fluorescence microplate reader (Techan Genios). Protein concentration for each sample was determined using the BCA assay (Pierce BCA® Protein Assay Kits; Thermo Scientific), according to manufacturer's instructions. The level of endogenous ROS for each sample was determined by dividing the fluorescence units by the concentration of protein in the lysate.
Taking into consideration that cocaine concentrations in the fetal rat neocortex drop rapidly to negligible levels 1 h after cocaine administration (Lee et al, PLoS Med. 5:e117, 2008), and to create a physiologically-meaningful drug treatment schedule in vitro, the neocortical organoids were exposed to a pharmacologically-relevant dose of cocaine, 3 μM (Kindberg et al, Dis. Model Mech. 7:1397-1405, 2014), for 1 h every other day, from days 32-44. […] In the present model, post-mitotic neurons migrated toward the periphery of the NE. […] The percentage of BrdU^+ cells that expressed TUJ1 was increased by cocaine as compared to control (FIG. 5F and FIG. 6B).

[5] = system: neocortical neurons generated from hPSCs

Q: For COC(=O)[C@H]1[C@@H](OC(=O)c2ccccc2)C[C@@H]2CC[C@H]1N2C [cocaine], which “development of the TUJ1+ area” value (neocortical organoids [1]) is on record?
A: The value was “significantly inhibited”.

Q: What about the “proliferation of PAX6+ NE cells” value [2] of the same compound?
A: The value was “inhibited”.

Q: What about the “migration of BrdU-labeled TUJ1 neurons outwards to the periphery of the NE area” value (neocortical organoids [3]; BrdU 1 h pulse, 24 h chase) of the same compound?
A: Its value is “increased”.

Q: What about the “percentage of BrdU+ cells that expressed TUJ1, compared to control” value (neocortical organoids [3]; H9 and H14) of the same compound?
A: Its value is “increased”.

Q: And the “ROS generation in neocortical organoids” value (neocortical organoids [4])?
A: Its value is “ROS accumulation was observed”.

Q: How did the “action potentials recorded in current clamp mode” value [5] turn out when NC1=N[C@H](O)[C@H]2[C@H]3O[C@]4(O)O[C@@H]([C@@H](O)[C@@]2(N1)[C@@H]4O)[C@]3(O)CO [tetrodotoxin] was run?
A: The value was “blocked”.
